Results as given in patent US20100029613A1, “TREATMENT AND PREVENTION OF EPILEPSY” (University of Rochester, priority 2004, published 2010).
Values joined by “and” are separate entries in the source; they are usually repeats but may differ in a detail not shown here. Equal values may be shown once. Read-outs that look alike come from different tables or passages of the source.

How the values were obtained:
cultured astrocytes [1] = experiment: Astrocyte cell volume, confocal x-z line scans of calcein-loaded cultures; type: cell-based, rat
[2] = test system: cultured rat cortical astrocytes; experiment: ATP-induced glutamate release, enzymatic fluorescence assay; type: cell-based; conditions: for glutamate release triggered by ATP agonists: 100 μM
[3] = test system: astrocytic Ca^2+ signaling in hippocampal slices; type: cell-based, rat
cultured astrocytes [4] = experiment: Ca^2+ imaging in cultured astrocytes; type: cell-based, rat; conditions: absence of co-cultured neurons
hippocampus of adult rat = conditions: in vivo
[5] = test system: PDSs in hippocampal slices evoked by 4-AP; experiment: 4-AP-evoked PDSs, field potential recording in hippocampal slices; type: cell-based, rat; conditions: for frequency and amplitude of PDSs: bath applied to slices with 4-AP induced seizures, NPPB 100 μM, FFA 100 μM
cultured astrocytes [6] = type: cell-based, rat
astrocytes in suspension = type: cell-based, rat
[7] = test system: cultured astrocytes from Cx43 KO mice; type: cell-based
cultured astrocytes [8] = experiment: HPLC analysis of amino acid release from perfused astrocyte cultures; type: cell-based, rat
[9] = test system: glutamate-permeable channel in cultured astrocytes; experiment: Whole-cell recording of ATP-induced current in cultured astrocytes; type: cell-based, rat; conditions: for effect on ATP-induced current: NaCl outside, BAPTA 10 mM in pipette, NPPB 100 μM, FFA 100 μM, gossypol 10 μM, OxATP 300 μM 1 h
[10] = test system: astrocytes in hippocampal slices; type: cell-based, rat
[11] = test system: glutamate-permeable channel in astrocytes in hippocampal slices; experiment: Whole-cell recording of ATP-induced inward current in astrocytes in hippocampal slices; type: cell-based, rat; conditions: for effect on ATP-induced inward current: 10 mM intracellular BAPTA, 100 μM NPPB in bath
[12] = test system: cultured rat cortical astrocytes; experiment: Hypotonicity (swelling)-induced glutamate release, enzymatic fluorescence assay; type: cell-based
[13] = test system: PDSs in hippocampal slices; experiment: PDSs across all experimental seizure models (4-AP, Mg^2+-free, bicuculline, penicillin, Ca^2+-free); type: cell-based, rat
[14] = test system: interneurons in hippocampal slices; type: cell-based, rat
[15] = test system: 4-AP induced astrocytic Ca^2+ signaling in cortex; experiment: In vivo two-photon imaging of 4-AP induced astrocytic Ca^2+ signaling; set-up: species or system mice
[16] = test system: ATP-induced Ca^2+ waves in cortical astrocytes; experiment: In vivo two-photon imaging of ATP-induced astrocytic Ca^2+ waves; set-up: species or system mice
[17] = 214 mOsM, same concentrations as for ATP-induced release
[18] = NPPB 100 μM, FFA 100 μM, gossypol 10 μM
[19] = valproate 450 mg/kg, gabapentin 200 mg/kg, phenyloin 100 mg/kg i.p., 5-30 min after 4-AP
[20] = valproate 450 mg/kg, gabapentin 200 mg/kg, phenyloin 100 mg/kg i.p., iontophoretic ATP, non-epileptic mice

In the case of 2′,3′-O-(4-benzoylbenzoyl)-ATP [Bz-ATP], the “increase in vertical sectional areas (cell swelling)” value (“increase … (cell swelling)” below) (cultured astrocytes [1]; 100 μM agonist, 1 min) is reported as 1.35±1.05% and the “glutamate release triggered by ATP agonists” value (from here on “glutamate release triggered”) [2] is reported as “without effect”.

For `Nc1ccncc1` [4-AP, 4-aminopyridine], the “astrocytic Ca^2+ signaling (Ca^2+ oscillations)” value [3] was “potently initiated astrocytic Ca^2+ signaling”, the “Ca^2+ signaling in cultured astrocytes” value (cultured astrocytes [4]) was “promptly induced Ca^2+ signaling” and the “extracellular concentration of glutamate” value (hippocampus of adult rat) was 6 to 10 µM. For the same molecule, the “increase in release of amino acid osmolytes (glutamate, aspartate, glutamine, taurine)” value (hippocampus of adult rat) was 3-8 fold.

`C[C@@](N)(C(=O)O)c1ccc(C(=O)O)cc1` [(S)-MCPG, (S)-Alpha-methyl-4-carboxy-phenylglycine] was tested, and the “frequency and amplitude of PDSs compared with TTX alone” value [5] was “failed to reduce”.

With `NC(CCCP(=O)(O)O)C(=O)O` (stereo not shown) [APV, 2-amino-5-phosphonovalerate] the “frequency and amplitude of PDSs compared with TTX alone” value [5] was “highly significant reduction”.

For `Nc1ncnc2c1ncn2[C@@H]1O[C@H](COP(=O)(O)OP(=O)(O)OP(=O)(O)O)[C@@H](O)[C@H]1O` [ATP], the “increase … (cell swelling)” value (cultured astrocytes [1]) was 5.19±0.66%, the volume increase (cultured astrocytes [1]) was 5.2% and the “decrease in fluorescence-dilution emission” value (cultured astrocytes [6]) was 9.6±1.3%. The “increase in astrocytic cell volume” value (astrocytes in suspension) was 3.5±0.6% and 3.0±0.5%, the glutamate release [2] was 2.49±0.21 fmol glutamate per cell and the glutamate release [7] was 3.02 fmol per cell. For the same molecule, the “glutamate release relative to astrocytes from wild-type littermates” value [7] was 90.7%, the “increase in glutamate release” value (cultured astrocytes [8]) was 2- to 5 fold and the “ATP-triggered inward current, amplitude” value [9] was 250±33 pA. For the same molecule, the “ATP-triggered inward current, average amplitude” value [9] was 177±37 pA and 138±36 pA, the “duration of the fluo-4 signal increase” value [10] was 8.7 ± 1.4 s and the “increase in the fluo-4 signal over baseline” value [10] was 131±13%. It also gave an ATP-induced inward current [11] of 254±31 pA.

`O=C(O)CN(CC(=O)O)c1ccccc1OCCOc1ccccc1N(CC(=O)O)CC(=O)O` [BAPTA, 1,2-bis (2-aminophenoxy) Ethane-N,N,N′,N′-tetraacetic acid] was tested, and the “effect on glutamate release evoked by hypoosmotic challenge” value (“effect on glutamate release evoked” below) [12, 17] was “failed to affect”, the “effect on ATP-induced current” value [9] was “blocked” and the “effect on ATP-induced inward current” value [11] was “attenuated”.

`CC(=O)OCOC(=O)CN(CC(=O)OCOC(C)=O)c1ccccc1OCCOc1ccccc1N(CC(=O)OCOC(C)=O)CC(=O)OCOC(C)=O` [BAPTA/AM, 1,2-bis(2-aminophenoxy)ethane-N,N,N′,N′-tetraacetate (BAPTA)/AM] was tested, and the “ATP-induced increase in vertical sectional areas attenuated to” value (cultured astrocytes [1]; ATP 100 μM, BAPTA/AM 20 μM preloaded) was 1.63±0.73%, the “effect on ATP-induced glutamate release” value [2] was “attenuated the release” and the “effect on glutamate, aspartate, glutamine and taurine release evoked by ATP” value (cultured astrocytes [8]) was “inhibited”.

`CCOc1ccc(Nc2ccc(/C(=C3C=C/C(=[N+](/CC)Cc4cccc(S(=O)(=O)[O-])c4)C=C/3C)c3ccc(N(CC)Cc4cccc(S(=O)(=O)[O-])c4)cc3C)cc2)cc1.[Na+]` [BBG, Brilliant Blue G] was tested, and the ATP-induced glutamate release ([2]; BBG 1 μM) was 106.4±19.1 % of control and the “amplitude of the ATP-induced inward current” value ([11]; BBG 1 μM, P=0.8) was 106.8±22.0%.

`N#Cc1cc2c(cc1[N+](=O)[O-])=NC(=O)C(=O)N=2` [CNQX, 6-cyano-7-nitroquinoxaline-2,3-dione] was tested, and the “frequency and amplitude of PDSs compared with TTX alone” value [5] was “significant decrease”.

`O=C(O)c1ccccc1Nc1cccc(C(F)(F)F)c1` [FFA, flufenamic acid] was tested, and the “frequency and amplitude of PDSs” value [5] was “markedly reduced”, the “glutamate release in presence of anion channel blocker” value (“glutamate release in presence” below) [2, 18] was 0.00±0.00 fmol per cell and the “effect on glutamate release evoked” value [12, 17] was “decreased”. For the same molecule, the “effect on ATP-induced current” value [9] was “inhibited ATP-induced current”.

In the case of `COc1ccc2c(c1)c(CC(=O)O)c(C)n2C(=O)c1ccc(Cl)cc1` [Indomethacin], the “effect on ATP-induced glutamate release” value [2] is reported as “did not reduce”.

`O=C(O)c1cc([N+](=O)[O-])ccc1NCCCc1ccccc1` [NPPB, 5-nitro-2-(3-phenylpropylamino) benzoic acid] was tested, and the “frequency and amplitude of PDSs” value [5] was “markedly reduced”, the “glutamate release in presence” value [2, 18] was 0.22±0.14 fmol per cell and the “reduction of glutamate release” value ([2]; after exposure to 10 μM ATP, NPPB 100 μM) was 72.6±3.9%. For the same molecule, the “effect on glutamate release evoked” value [12, 17] was “decreased”, the “effect on glutamate, aspartate, glutamine and taurine release evoked by ATP” value (cultured astrocytes [8]) was “inhibited” and the “effect on ATP-induced current” value [9] was “inhibited ATP-induced current”. The “effect on ATP-induced inward current” value [11] was “attenuated”.

With `Nc1ncnc2c1ncn2[C@@H](C=O)O[C@@H](C=O)COP(=O)(O)OP(=O)(O)OP(=O)(O)O` [OxATP, oxidized ATP] the “effect on ATP-induced glutamate release” value [2] was “did not significantly reduce” and the “effect on ATP-induced current” value [9] was “no significant effect”.

`Nc1c(S(=O)(=O)O)cc(Nc2ccc(Nc3nc(Cl)nc(Nc4cccc(S(=O)(=O)O)c4)n3)c(S(=O)(=O)O)c2)c2c1C(=O)c1ccccc1C2=O` [Reactive Blue 2] was tested, and the “effect on ATP-induced glutamate release” value [2] was “blocked the release”.

For `N[C@H](C(=O)O)[C@H](OCc1ccccc1)C(=O)O` [TBOA, D,L-threo-beta-benzyloxyaspartate], the “frequency and amplitude of PDSs compared with TTX alone” value [5] was “increased the frequency and amplitude of PDSs significantly”, the “effect on ATP-induced glutamate release” value [2] was “without effect” and the “effect on glutamate release evoked” value [12, 17] was “without effect”.

With `NC1=N[C@H](O)[C@H]2[C@H]3O[C@]4(O)O[C@@H]([C@@H](O)[C@@]2(N1)[C@@H]4O)[C@]3(O)CO` [TTX, tetrodotoxin] the “decrease of relative frequency of PDSs compared with 4-AP alone” value [5] was 32±8%, the “frequency and amplitude of 4-AP induced PDSs” value [5] was “only slightly decreased” and the “frequency and amplitude of PDSs reduced by” value [5] was 20-35%. The “frequency of PDSs reduced to” value [13] was 70-90 % of total and the “frequency or amplitude of astrocytic Ca^2+ oscillations” value [3] was “did not reduce”.

In the case of `O=c1ccn([C@@H]2O[C@H](COP(=O)(O)OP(=O)(O)OP(=O)(O)O)[C@@H](O)[C@H]2O)c(=O)[nH]1` [UTP], the “increase … (cell swelling)” value (cultured astrocytes [1]) is reported as 5.75±0.57% and the “glutamate release triggered” value [2] is reported as “roughly equivalent to that of ATP”.

`CO/C1=C\C(C)=C\[C@@H](C)[C@@H](O)[C@@H](C)C/C(C)=C/C=C/[C@H](OC)[C@@H]([C@@H](C)[C@@H](O)[C@H](C)[C@@]2(O)C[C@@H](O)[C@H](C)[C@@H](C(C)C)O2)OC1=O` [bafilomycin A1] was tested, and the “effect on ATP-induced glutamate release” value [2] was “no effect”, the “effect on glutamate release evoked” value [12] was “no effect” and the “frequency of inhibitory postsynaptic currents” value [14] was 0.2 per sec.

For `NCC1(CC(=O)O)CCCCC1` [gabapentin], the “4-AP-induced Ca^2+ signaling reduced by” value ([15]; mouse, in vivo) was 55.6% and the “ATP-evoked astrocytic Ca^2+ signaling (Ca^2+ waves) depressed by” value (shortened to “ATP-evoked astrocytic Ca^2+ signaling”) ([16]; mouse, in vivo) was 53.8%.

`Cc1cc2c(C(C)C)c(O)c(O)c(C=O)c2c(O)c1-c1c(C)cc2c(C(C)C)c(O)c(O)c(C=O)c2c1O` [gossypol] was tested, and the “glutamate release in presence” value [2] was 0.07±0.07 fmol per cell.

With `O=C1NC(=O)C(c2ccccc2)(c2ccccc2)N1` [phenyloin] the “4-AP-induced Ca^2+ signaling reduced by” value [15, 19] was 45.5% and the “ATP-evoked astrocytic Ca^2+ signaling” value [16, 20] was 23.8%.

With `C/C=C(/C)C(=O)O[C@H]1C(C)=C2[C@H]([C@@H]1OC(=O)CCCCCCC)[C@@](C)(OC(C)=O)C[C@H](OC(=O)CCC)[C@@]1(O)[C@H]2OC(=O)[C@@]1(C)O` [thapsigargin] the “effect on ATP-induced glutamate release” value [2] was “attenuated the release” and the “effect on glutamate release evoked” value [12, 17] was “failed to affect”.

In the case of `CCCC(CCC)C(=O)O` [valproate], the “4-AP-induced Ca^2+ signaling reduced by” value [15, 19] is reported as 69.7% and the “ATP-evoked astrocytic Ca^2+ signaling” value [16, 20] is reported as 64.9%.

With `Nc1ncnc2c1ncn2[C@@H]1O[C@H](COP(=O)(O)CP(=O)(O)OP(=O)(O)O)[C@@H](O)[C@H]1O` [αβ-meATP] the “glutamate release triggered” value [2] was “without effect”.

In the case of methionine sulfoximine [MSO], the “effect on ATP-induced glutamate release” value [2] is reported as “increased glutamate release” and the “effect on glutamate release evoked” value [12] is reported as “increased glutamate release”.
